Data: patent US6284768A, “Src family SH2 domain inhibitors” (Boehringer Ingelheim Pharmaceuticals, Inc., priority 1999, dated 2001)

Target: T1, p56lck GST-SH2 (lck SH2 domain) (Homo sapiens, UniProt P06239)
T1 construct: GST (N)
Test: Receptor-ligand equilibrium binding constants by surface plasmon resonance (biosensor), lck SH2 domain
Procedure: The general methods for the determination of Receptor-Ligand Kinetic and Equilibrium Binding Constants using Surface Plasmon Resonance as applied to the lck SH2 Domain have been described in: M. M. Morelock, R. H. Ingraham, R. Betageri.
General Biosensor Methods.
The mobile phase buffer, 10 mM HEPES, pH 7.4, 150 mM NaCl, and 0.05% P-20, was maintained at a flow rate of 5 μL/min in all experiments. All buffers and protein solutions were filtered through a 0.2 um filter and degassed immediately before use.
Strepavidin was diluted to 0.25 mg/ml in 20 mM NaOAc buffer, pH 4.5 and immobilized by free amine coupling to approximately 3000 RU for all 4 flow cells from a single sensor chip .
Surface Kd Determinations.
The surface was regenerated by 4μL of 20 mM HCl followed by 4 μL of 150 mM Tris base. The values used in the analysis were the equilibrium plateau values from which the sample refractive index has been subtracted. For the data analyzed for linear function the equilibrium plateau values without the sample refractive index subtracted were used. Free solution Kd determinations. In a 96 well microtiter plate 20 nM SH2 domain suspended in running buffer containing 0.2 mg/ml BSA and 1 mM DT'T was distributed in 100 μL per well. The highest concentration of compound tested was added to the last well and titrated with 2 fold dilutions for a final of 10 concentrations to be run. 25 μL of the mixture was injected over a strepavidin-biotin-ε-aminohexanoic acid-EGQpYEEIPIA surface and regenerated with 4 μL of 20 mM HCl. […], of 150 mM Tris base was injected after every 11 samples. Typically 8 assays were run in an overnight programmed run.

[1] = Table 1, compounds of formula (II)
[2] = Table 2, compounds of formula (III)

T1 sequence (P06239 127-224 limits assumed): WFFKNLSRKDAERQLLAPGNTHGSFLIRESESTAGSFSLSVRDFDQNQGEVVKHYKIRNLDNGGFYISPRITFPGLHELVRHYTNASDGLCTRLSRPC

| Structure (SMILES) | Kd [1] | Kd [2] |
| --- | --- | --- |
| Cc1ccn(CC2CCCCC2)c(=O)c1NC(=O)[C@H](Cc1ccc(CC(=O)O)cc1)NC(=O)Cc1cccc2ccccc12 [Compound 68] | 12 µM | – |
| COc1ccc(Cn2ccc(C)c(NC(=O)C(Cc3ccc(C(C)(C)C(=O)O)cc3)NC(=O)C(C)(C)c3ccc(N(C)C)cc3)c2=O)cc1 (centres unmarked) [Compound 230] | 0.51 µM | – |
| COc1ccc(Cn2c(C)cc(C)c(NC(=O)[C@H](Cc3ccc(CC(=O)O)cc3)NC(=O)Cc3cccc4ccccc34)c2=O)cc1 [Compound 91] | 4.8 µM | – |
| Cc1ccn(Cc2ccc(C(=O)C(F)(F)F)cc2)c(=O)c1NC(=O)C(Cc1ccc(C(C)(C)C(=O)O)cc1)NC(=O)C(C)(C)c1ccc2ccccc2c1 (centres unmarked) [Compound 225] | 41 µM | – |
| COc1ccc(Cn2ccc(C)c(NC(=O)[C@H](Cc3ccc(NC(=O)C(=O)O)cc3)NC(=O)Cc3cccc(Br)c3)c2=O)cc1 [Compound 37] | 0.65 µM | – |
| COc1ccc(Cn2cc(Br)c(C)c(NC(=O)[C@H](Cc3ccc(C(C)(C)C(=O)O)cc3)NC(=O)C(C)(C)c3ccc4ccccc4c3)c2=O)cc1 [Compound 233] | 0.42 µM | – |
| CCCCCCn1cc(Br)c(C)c(NC(=O)C(Cc2ccc(C(C)(C)C(=O)O)cc2)NC(=O)Cc2ccc3ccccc3c2)c1=O (centres unmarked) [Compound 238] | 0.72 µM | – |
| COCCOCn1ccc(C)c(NC(=O)C(Cc2ccc(C(C)(C)C(=O)O)cc2)NC(=O)Cc2cccc3ccccc23)c1=O (centres unmarked) [Compound 188] | 45 µM | – |
| Cc1ccc(Cn2ccc(C)c(NC(=O)[C@H](Cc3ccc(CC(=O)O)cc3)NC(=O)Cc3cccc4ccccc34)c2=O)cc1 [Compound 56] | 7.1 µM | – |
| COc1ccc(Cn2ccc(C)c(NC(=O)[C@H](Cc3ccc(NC(=O)C(=O)O)cc3)NC(=O)Cc3csc(N)n3)c2=O)cc1 [Compound 10] | 6.7 µM | – |
| COc1ccc(Cn2ccc(C)c(NC(=O)[C@H](Cc3ccc(NC(=O)C(=O)O)cc3)NC(=O)Cc3cccc4ccccc34)c2=O)cc1 [Compound 52] | 0.24 µM | – |
| CCc1ccn(Cc2ccc(OC)cc2)c(=O)c1NC(=O)[C@H](Cc1ccc(CC(=O)O)cc1)NC(=O)Cc1cccc2ccccc12 [Compound 92, 3-[2'-(S)-(1'"-Naphthylacetyl)amino-3'-(4"-carboxymethyl)benzene]propanoylamino-1-(4-methoxy)benzyl-4-ethyl-2-pyridone] | 3.8 µM | – |
| CCCCCCn1cc(C(=O)OC)c(C)c(NC(=O)C(Cc2ccc(C(C)(C)C(=O)O)cc2)NC(=O)Cc2ccc3ccccc3c2)c1=O (centres unmarked) [Compound 240] | 0.74 µM | – |
| COC1CCC(Cn2ccc(C)c(NC(=O)C(Cc3ccc(C(C)(C)C(=O)O)cc3)NC(=O)C(C)(C)c3ccc4ccccc4c3)c2=O)CC1 (centres unmarked) [Compound 235] | 6.2 µM | – |
| COc1ccc(Cn2ccc(C)c(NC(=O)[C@H](Cc3ccc(N(O)C(=O)C(=O)O)cc3)NC(=O)Cc3c[nH]c4ccccc34)c2=O)cc1 [Compound 24] | 2.9 µM | – |
| CCCCCn1ccc(C)c(NC(=O)[C@H](Cc2ccc(CC(=O)O)cc2)NC(=O)C(C)(C)C)c1=O [Compound 69] | 89 µM | – |
| COc1ccc(Cn2ccc(C)c(NC(=O)[C@H](Cc3ccc(NC(=O)C(=O)O)cc3)NC(=O)Nc3c(C)ccc4ccccc34)c2=O)cc1 [Compound 30] | 0.35 µM | – |
| Cc1ccn(CCCCC(C)C)c(=O)c1NC(=O)C(Cc1ccc(C(C)(C)C(=O)O)cc1)NC(=O)OCc1ccccc1 (racemic) [Compound 146, 3-[2'-(R,S)-Benyloxycarbonylamino-3'-[4"-(1'"-carboxy-1'"-methyl)ethyl]benzene]propanoylamino-1-(5-methylhexyl)-4-methyl-2-pyridone] | 13 µM | – |

| Structure (SMILES) | Kd [1] | Kd [2] |
| --- | --- | --- |
| Cc1ccn(Cc2ccccc2)c(=O)c1NC(=O)[C@H](Cc1ccc(CC(=O)O)cc1)NC(=O)Cc1cccc2ccccc12 [Compound 18] | 17.7 µM | – |
| COc1ccc(Cn2ncc(C)c(NC(=O)C(Cc3ccc(C(C)(C)C(=O)O)cc3)NC(=O)Cc3ccccc3[N+](=O)[O-])c2=O)cc1 (centres unmarked) [Compound 247] | – | 5.2 µM |
| COc1ccc(Cn2ccc(C)c(NC(=O)[C@H](Cc3ccc(C(C)(C)C(=O)O)cc3)NC(=O)[C@H](C)c3cccc4ccccc34)c2=O)cc1 [Compound 44] | 1.5 µM | – |
| COc1ccc(Cn2ccc(C)c(NC(=O)C(Cc3ccc(C(C)(C)C(=O)O)cc3)NC(=O)Cc3ccc4ccccc4c3)c2=O)cc1O (centres unmarked) [Compound 160] | 5.8 µM | – |
| Cc1ccn(Cc2ccc(Cl)cc2)c(=O)c1NC(=O)[C@H](Cc1ccc(CC(=O)O)cc1)NC(=O)Cc1cccc2ccccc12 [Compound 55] | 15 µM | – |
| COC1CCC(Cn2ccc(C)c(NC(=O)C(Cc3ccc(C(C)(C)C(=O)O)cc3)NC(=O)Cc3ccc4ccccc4c3)c2=O)CC1 (centres unmarked) [Compound 147] | 1.9 µM | – |
| Cc1ccn(C/C=C/c2ccccc2)c(=O)c1NC(=O)C(Cc1ccc(C(C)(C)C(=O)O)cc1)NC(=O)C(C)(C)c1ccc2ccccc2c1 (racemic) [Compound 116] | 3.2 µM | – |
| COc1ccc(Cn2ccc(C)c(NC(=O)[C@H](Cc3ccc(CC(=O)O)cc3)NC(=O)Cc3ccccc3Oc3ccccc3)c2=O)cc1 [Compound 73] | > 250 µM | – |
| COc1ccc(Cn2ncc(C)c(NC(=O)C(Cc3ccc(C(C)(C)C(=O)O)cc3)NC(=O)Cc3ccccc3)c2=O)cc1 (centres unmarked) [Compound 245] | – | 23 µM |
| Cc1ccn(Cc2ccoc2)c(=O)c1NC(=O)C(Cc1ccc(C(C)(C)C(=O)O)cc1)NC(=O)Cc1ccc2ccccc2c1 (centres unmarked) [Compound 202] | 2.5 µM | – |
| Cc1ccn(Cc2ccc(O)cc2)c(=O)c1NC(=O)[C@H](Cc1ccc(C(C)(C)C(=O)O)cc1)NC(=O)C(C)(C)c1cccc2ccccc12 [Compound 134] | 5.7 µM | – |
| COc1ccc(Cn2ccc(C)c(NC(=O)[C@H](Cc3ccc(C(F)(F)P(=O)(O)O)cc3)NC(=O)Cc3cccc4ccccc34)c2=O)cc1 [Compound 66] | 0.43 µM | – |
| COc1ccc(Cn2cc(Br)c(C)c(NC(=O)[C@H](Cc3ccc(-n4nnc(C(=O)O)c4C(=O)O)cc3)NC(=O)Cc3ccc4ccccc4c3)c2=O)cc1 [Compound 241, 3-[2'-(S)-(2""-Naphthylacetyl)amino-3'-[4"-(4'",5'"-dicarboxytriazolyl)]benzene]propanoylamino-1-(4-methoxybenzyl)-5-bromo-4-methyl-2-pyridone] | 0.06 µM | – |
| COc1ccc(Cn2ccc(C)c(NC(=O)[C@H](Cc3ccc(NC(=O)C(=O)O)cc3)NC(=O)N(C)c3cccc4ccccc34)c2=O)cc1 [Compound 25] | 2.1 µM | – |
| COc1ccc(Cn2ccc(C)c(NC(=O)[C@H](Cc3ccc(NC(=O)C(=O)O)cc3)NC(=O)Cc3ccc(NCC(C)(C)C)cc3)c2=O)cc1 [Compound 48] | 0.5 µM | – |
| CCCCCCn1ccc(C)c(NC(=O)C(Cc2ccc(C(C)(C)C(=O)O)cc2)NC(=O)CCc2ccccc2)c1=O (centres unmarked) [Compound 204] | 10 µM | – |
| COc1ccc(Cn2ccc(C)c(NC(=O)[C@H](Cc3ccc(NC(=O)C(=O)O)cc3)NC(=O)CN3CCc4ccccc4C3)c2=O)cc1 [Compound 29] | 1.2 µM | – |

The next lines start with the values.

| Kd [1] | Kd [2] | Structure (SMILES) |
| --- | --- | --- |
| 15 µM | – | COc1ccc(Cn2ccc(C)c(NC(=O)[C@H](Cc3ccc(CC(=O)O)cc3)NC(=O)OCc3ccccc3)c2=O)cc1 [Compound 57] |
| 20 µM | – | COc1ccc(Cn2ccc(C)c(NC(=O)[C@H](Cc3ccc(CC(=O)O)cc3)NC(=O)C3(c4ccccc4)CCOCC3)c2=O)cc1 [Compound 80] |
| 2.6 µM | – | COc1ccc(Cn2ccc(C)c(NC(=O)[C@H](Cc3ccc(CC(=O)O)cc3)NC(=O)COc3nccc4ccccc34)c2=O)cc1 [Compound 85] |
| 8.6 µM | – | COc1ccc(Cn2ccc(C)c(NC(=O)[C@H](Cc3ccc(CC(=O)O)cc3)NC(=O)C(C)(C)c3ccccc3)c2=O)cc1 [Compound 76] |
| 1.9 µM | – | COc1ccc(Cn2ccc(C)c(NC(=O)[C@H](Cc3ccc(CC(=O)O)cc3)NC(=O)Cc3cc4ccccc4cc3C)c2=O)cc1 [Compound 60] |
| 4.3 µM | – | COc1ccc(Cn2ccc(C)c(NC(=O)C(Cc3ccc(C(C)(C)C(=O)O)cc3)NC(=O)C(C)(C)C)c2=O)cc1 (centres unmarked) [Compound 171] |
| 1.8 µM | – | COc1ccc(Cn2ccc(C)c(NC(=O)[C@H](Cc3ccc(NC(=O)C(=O)O)cc3)NC(=O)Cc3ccc(N(C)C)cc3)c2=O)cc1 [Compound 22] |
| 0.13 µM | – | COc1ccc(Cn2ccc(C)c(NC(=O)[C@H](Cc3ccc(C(C)(C)C(=O)O)cc3)NC(=O)Cc3ccc(N(C)C)cc3)c2=O)cc1 [Compound 99] |
| 1.1 µM | – | COc1ccc(Cn2ccc(C)c(NC(=O)[C@H](Cc3ccc(CC(=O)O)cc3)NC(=O)Cc3ccc(CC(C)(C)C)cc3)c2=O)cc1 [Compound 163] |
| 3.7 µM | – | COc1ccc(Cn2ccc(C)c(NC(=O)[C@H](Cc3ccc(NC(=O)C(=O)O)cc3)NC(=O)Cc3ccc([N+](=O)[O-])cc3)c2=O)cc1 [Compound 33] |
| 1.3 µM | – | COc1ccc(Cn2ccc(C)c(NC(=O)[C@H](Cc3ccc(C(F)(F)P(=O)(O)O)cc3)NC(C)=O)c2=O)cc1 [Compound 65] |
| 19 µM | – | COc1ccc(Cn2ccc(C)c(NC(=O)[C@H](Cc3ccc(CC(=O)O)cc3)NC(C)=O)c2=O)cc1 [Compound 89] |
| 2.8 µM | – | COc1ccc(Cn2ccc(C)c(NC(=O)[C@H](Cc3ccc(CC(=O)O)cc3)NC(=O)Cc3cccc(O)c3)c2=O)cc1 [Compound 165] |
| 3.9 µM | – | COc1ccc(Cn2ccc(C)c(NC(=O)C(Cc3ccc(C(C)(C)C(=O)O)cc3)NC(=O)C(C)C)c2=O)cc1 (centres unmarked) [Compound 170] |
| 11 µM | – | COc1ccc(Cn2ccc(C)c(NC(=O)[C@H](Cc3ccc(CC(=O)O)cc3)NC(=O)C3(c4ccccc4)CCCCC3)c2=O)cc1 [Compound 79] |
